Assay results from US20240417400A1, “ARYL HYDROCARBON RECEPTOR (AHR) MODULATORS AND THERAPEUTIC USES THEREOF” (GALILEO BIOSYSTEMS, INC., priority 2021, published 2024).

Assays:
Format in all cases: cell-based
[1] = test system: gene expression biomarkers (CYP1A1, CCL17/TARC, CCL26/Eotaxin-3, Filaggrin) in freshly excised healthy human skin; test: Gene expression biomarker activity screen in stimulated human skin explants (RT-qPCR); conditions: 10 μM in media, harvested 24 hours post stimulation
Protocol: Compound 6 and comparative compound tapinarof are evaluated for their ability to inhibit production of gene expression biomarkers using the biomarkers panel described in the below tables. Each compound is dissolved in DMSO at a dilution volume of 1000× and the resultant solutions are stored at −80° C. Concentrations tested include 1 μM, 5 μM, 10 μM, and 25 μM. Freshly excised healthy human skin is dermatomed to an approximate thickness of 750±100 μm using an Integra® dermatome according to US-SOP-3005 and US-SOP-3006. The dermatomed skin is sectioned into 7 mm biopsies and placed into 6.5 mm permeable membrane Transwell@ inserts with the Stratum corneum side apical and a section of collagen between the basal dermal tissue and the permeable membrane (n=4 per test sample). The Transwell® inserts have an average surface area of approximately 0.33 cm^2 and a volume of 0.5 mL. The basal chambers of the inserts are filled with 0.5 mL of Cornification media and the compound solutions are added to the media to a concentration of 10 μM. The inserts are stored in a humidified incubator overnight at 37° C. for approximately 16 hours. The contents of the basal chambers are vacuum aspirated and replaced with 0.5 mL of pre-warmed (ca. 37° C.) Cornification media containing the compound at a concentration of 10 μM and stimulation cocktail. Tissue explants are harvested at 24 hours post stimulation to measure production of the gene expression biomarkers by quantitative reverse transcription polymerase chain reaction (RT-qPCR). […] The test samples include untreated vehicle (control), TH1 stimulation control, TH2 stimulation control, TH17 stimulation control, tapinarof, and Compound 6.

[2] = test system: T-cells; test: Inflammation of T-cells induced by CD2, CD3 and CD28: IL-2 and IL-4 release; conditions: at the highest test concentrations, FIGS. 5A, 5B
Text: (§1) Inflammation of T-cells were induced by CD2, CD3, and CD28. The cells were exposed to Compound 6 or tapiranof and measured for inhibition of IL-2 and IL-4 release and cell viability. FIG. 5A depicts concentration response curves of inhibition of IL-2 and IL-4 release and cell viability for Compound 6. FIG. 5B depicts concentration response curves of inhibition of IL-2 and IL-4 release and cell viability for tapiranof.

[3] = test system: human keratinocytes; test: Inflammation of human keratinocytes induced by IL-17 and IFN-α: IL-8 release and cell viability; conditions: IL-17 and IFN-α induced, FIGS. 4A, 4B
Text: as §1, with “The” for “Inflammation of T-cells were induced by CD2, CD3, and CD28. The”, “IL-8” for “IL-2 and IL-4”, “4A” for “5A”, “4B” for “5B”

[4] = test system: human keratinocytes; test: Inflammation of human keratinocytes induced by IL-4, IL-13, IL-22 and IFN-γ: CCL2 release and cell viability; conditions: IL-4, IL-13, IL-22 and IFN-γ induced, FIGS. 3A, 3B
Text: as §1, with “human keratinocytes was” for “T-cells were”, “IL-4, IL-13, IL-22” for “CD2, CD3,”, “IFN-γ.” for “CD28.”, “CCL2” for “IL-2 and IL-4”, “3A” for “5A”, “3B” for “5B”

O=c1c2ccccc2nc2n1CCc1c-2[nH]c2ccccc12 [Compound 6]
production of CYP1A1 (gene expression) ([1]; FIG. 1A): significant induction | production of CCL17/TARC (gene expression) ([1]; FIG. 1B): reduction/inhibition | production of CCL26/Eotaxin-3 (gene expression) ([1]; FIG. 1C): reduction/inhibition | production of Filaggrin (gene expression) ([1]; FIG. 1D): significant induction | inhibition of IL-2 release [2]: inhibited release of IL-2 | inhibition of IL-4 release [2]: inhibited | inhibition of IL-8 release [3]: inhibited release of IL-8 | cell viability [4]: did not affect cell viability | inhibition of CCL2 release [4]: inhibited release of CCL2

CC(C)c1c(O)cc(/C=C/c2ccccc2)cc1O [tapiranof, tapinarof, reference compound]
inhibition of IL-2 release [2]: inhibited release of IL-2 | inhibition of IL-4 release [2]: inhibited | inhibition of IL-8 release [3]: inhibited release of IL-8 | cell viability [4]: inhibition of cell viability at higher concentrations | inhibition of CCL2 release [4]: inhibited release of CCL2
